Values joined by “and” are separate entries in the source; they are usually repeats but may differ in a detail not shown here. Equal entries are not always repeated. Where two headings read alike, the source gives them in different places.
What was measured:
in vitro [1] = experiment: in vitro
VV = test system: VV; parameters: species or system mice; details: mouse, in vivo
[2] = test system: thymidine kinase deficient mutant strain of VV; format: cell-based, Vaccinia Virus
[3] = test system: wild-type VV (Vaccinia Virus); format: cell-based
CV Cowpox Virus = format: cell-based
in vitro [4] = experiment: in vitro; remark: listed apart in the source
VV or CV = test system: VV or CV; parameters: species or system mice; details: mouse, in vivo
CV = test system: CV; parameters: species or system mice; details: mouse, in vivo
[5] = test system: dUTPase deficient mutant strain of VV; format: cell-based, Vaccinia Virus
Cowpox Virus-BR = test system: Cowpox Virus-BR; parameters: species or system BALB/c mice; details: mouse, in vivo

Row | SMILES | CC50 (in vitro [1]) [µM] | protection from mortality (VV) | antiviral activity against mutant strain of VV [2] | effective concentration against wild-type VV [3] | effective concentration against CV (CV Cowpox Virus) | CC50 (in vitro [4]) [µM] | reduction in mortality (VV or CV) | protection from mortality (CV) | antiviral activity against mutant strain of VV [5] | MDD ± STDEV (Mean Day of Death) (Cowpox Virus-BR) | Mortality Number (Cowpox Virus-BR) | Mortality Percent (Cowpox Virus-BR) [%]
1 | O=c1[nH]c(=O)n([C@H]2C[C@H](O)[C@@H](CO)S2)cc1I [5-iodo-4′-thio-2′-deoxyuridine] | > 100 | completely protected | retained its antiviral activity | less than 1.0 μM | less than 1.0 μM | > 100 | significant reduction in mortality | complete protection from mortality | retained its antiviral activity | 18.0 and 16.0 ± 2.8 and 14.0 and 14.0 ± 5.7 | 0/15 and 0/13 and 1/15 and 2/15 | 
2 | Nc1ccn(C[C@@H](CO)OCP(=O)(O)O)c(=O)n1 [Cidofovir, reference compound] |  |  |  |  |  |  |  |  |  |  | 0/15 and 0/14 | 0

Source: US8859589B2 (priority 2008, dated 2014)
